Measured values from ChEMBL document CHEMBL3885881, “DrugMatrix”.

Organism: Rattus norvegicus
Type: toxicity, organism-based, Sprague-Dawley
Conditions: in vivo, po, route oral GAVAGE, […]; for ABSOLUTE EOSINOPHIL / ABSOLUTE LYMPHOCYTE / ABSOLUTE MONOCYTE / ABSOLUTE SEGMENTED NEUTROPHIL / BASOPHIL / EOSINOPHIL / ERYTHROCYTE COUNT / HEMATOCRIT / HEMOGLOBIN / LEUKOCYTE COUNT / LYMPHOCYTE / MEAN CORPUSCULAR HEMOGLOBIN / MEAN CORPUSCULAR HEMOGLOBIN CONCENTRATION / MEAN CORPUSCULAR VOLUME / MONOCYTE / NEUTROPHIL / NUCLEATED RED BLOOD CELLS / PLATELET COUNT: tissue Blood; for ALANINE AMINOTRANSFERASE / ALBUMIN / ALKALINE PHOSPHATASE / ASPARTATE AMINOTRANSFERASE / BLOOD UREA NITROGEN / CARBON DIOXIDE / CHLORIDE / CHOLESTEROL / CREATINE PHOSPHOKINASE / CREATININE / GLUCOSE / LACTATE DEHYDROGENASE / LIPASE / PHOSPHORUS / POTASSIUM / SODIUM / TOTAL BILIRUBIN / TOTAL PROTEIN / URIC ACID: tissue Plasma
[1] = 0 mg/kg, 6 h, vehicle control, dose level Control, time 0.25 day
[2] = 0 mg/kg, 24 h, vehicle control, dose level Control, time 1 day
[3] = 30 mg/kg, 6 h, dose level Low, time 0.25 day

Description: DrugMatrix - Regimen: Single

In the case of S=C=Nc1cccc2ccccc12 [1-NAPHTHYLISOTHIOCYANATE], the “ABSOLUTE EOSINOPHIL” value [1] is reported as 61.17 CELLS/uL, the “ABSOLUTE LYMPHOCYTE” value [1] is reported as 12625.83 CELLS/uL and the “ABSOLUTE MONOCYTE” value [1] is reported as 417.17 CELLS/uL. For the same compound, the “ABSOLUTE SEGMENTED NEUTROPHIL” value [1] was 1595.83 CELLS/uL, the BASOPHIL [1] was 0% and the EOSINOPHIL [1] was 0.33%. The “ERYTHROCYTE COUNT” value [1] was 5.46 x10E6/uL, the HEMATOCRIT [1] was 36.02% and the HEMOGLOBIN [1] was 13.55 G/DL. For the same compound, the “LEUKOCYTE COUNT” value [1] was 14.7 x10E3/uL, the LYMPHOCYTE [1] was 85.83% and the “MEAN CORPUSCULAR HEMOGLOBIN” value [1] was 24.87 pg. The “MEAN CORPUSCULAR HEMOGLOBIN CONCENTRATION” value [1] was 37.65 G/DL, the “MEAN CORPUSCULAR VOLUME” value [1] was 66.03 fL and the MONOCYTE [1] was 2.67%. The NEUTROPHIL [1] was 11.17%, the “NUCLEATED RED BLOOD CELLS” value [1] was 0 /100WBC and the “PLATELET COUNT” value [1] was 1072.33 x10E3/uL. The “ALANINE AMINOTRANSFERASE” value [1] was 63.33 u/L, the ALBUMIN [1] was 4.58 G/DL and the “ALKALINE PHOSPHATASE” value [1] was 285 u/L. The “ASPARTATE AMINOTRANSFERASE” value [1] was 116.5 u/L, the “BLOOD UREA NITROGEN” value [1] was 9.17 mg/dL and the “CARBON DIOXIDE” value [1] was 18.83 mmol/L. The CHLORIDE [1] was 104.5 MEQ/L, the CHOLESTEROL [1] was 68.67 mg/dL and the “CREATINE PHOSPHOKINASE” value [1] was 421 u/L. For the same compound, the CREATININE [1] was 0.58 mg/dL, the GLUCOSE [1] was 160.67 mg/dL and the “LACTATE DEHYDROGENASE” value [1] was 396 u/L. It also gave an LIPASE [1] of 10.33 u/L, a PHOSPHORUS [1] of 12.25 mg/dL and a POTASSIUM [1] of 6.42 MEQ/L. For the same compound, the SODIUM [1] was 142.77 MEQ/L, the “TOTAL BILIRUBIN” value [1] was 0.25 mg/dL and the “TOTAL PROTEIN” value [1] was 5.48 G/DL. The “URIC ACID” value [1] was 1.65 mg/dL, the “ABSOLUTE EOSINOPHIL” value [2] was 23.83 CELLS/uL and the “ABSOLUTE LYMPHOCYTE” value [2] was 11026.5 CELLS/uL. For the same compound, the “ABSOLUTE MONOCYTE” value [2] was 98.5 CELLS/uL, the “ABSOLUTE SEGMENTED NEUTROPHIL” value [2] was 667.83 CELLS/uL and the BASOPHIL [2] was 0%. For the same compound, the EOSINOPHIL [2] was 0.17%, the “ERYTHROCYTE COUNT” value [2] was 4.92 x10E6/uL and the HEMATOCRIT [2] was 31.9%. For the same compound, the HEMOGLOBIN [2] was 12.6 G/DL, the “LEUKOCYTE COUNT” value [2] was 11.82 x10E3/uL and the LYMPHOCYTE [2] was 93%. The “MEAN CORPUSCULAR HEMOGLOBIN” value [2] was 25.7 pg, the “MEAN CORPUSCULAR HEMOGLOBIN CONCENTRATION” value [2] was 39.57 G/DL and the “MEAN CORPUSCULAR VOLUME” value [2] was 64.97 fL. For the same compound, the MONOCYTE [2] was 0.83%, the NEUTROPHIL [2] was 6% and the “NUCLEATED RED BLOOD CELLS” value [2] was 0 /100WBC. The “PLATELET COUNT” value [2] was 872.33 x10E3/uL, the “ALANINE AMINOTRANSFERASE” value [2] was 82.67 u/L and the ALBUMIN [2] was 4.17 G/DL. For the same compound, the “ALKALINE PHOSPHATASE” value [2] was 321.83 u/L, the “ASPARTATE AMINOTRANSFERASE” value [2] was 99.5 u/L and the “BLOOD UREA NITROGEN” value [2] was 13.33 mg/dL. For the same compound, the “CARBON DIOXIDE” value [2] was 33.67 mmol/L, the CHLORIDE [2] was 99.83 MEQ/L and the CHOLESTEROL [2] was 64 mg/dL. The “CREATINE PHOSPHOKINASE” value [2] was 275.33 u/L, the CREATININE [2] was 0.21 mg/dL and the GLUCOSE [2] was 146.17 mg/dL. For the same compound, the “LACTATE DEHYDROGENASE” value [2] was 101 u/L, the LIPASE [2] was 9.83 u/L and the PHOSPHORUS [2] was 8.82 mg/dL. The POTASSIUM [2] was 5.51 MEQ/L, the SODIUM [2] was 143.2 MEQ/L and the “TOTAL BILIRUBIN” value [2] was 0.18 mg/dL. For the same compound, the “TOTAL PROTEIN” value [2] was 5.83 G/DL, the “URIC ACID” value [2] was 0.63 mg/dL and the “ABSOLUTE EOSINOPHIL” value [3] was 14.83 CELLS/uL. The “ABSOLUTE LYMPHOCYTE” value [3] was 9035 CELLS/uL, the “ABSOLUTE MONOCYTE” value [3] was 384.17 CELLS/uL and the “ABSOLUTE SEGMENTED NEUTROPHIL” value [3] was 1199.33 CELLS/uL. For the same compound, the BASOPHIL [3] was 0%, the EOSINOPHIL [3] was 0.17% and the “ERYTHROCYTE COUNT” value [3] was 5.6 x10E6/uL. The HEMATOCRIT [3] was 38.25%, the HEMOGLOBIN [3] was 13.8 G/DL and the “LEUKOCYTE COUNT” value [3] was 10.63 x10E3/uL. The LYMPHOCYTE [3] was 85.5%, the “MEAN CORPUSCULAR HEMOGLOBIN” value [3] was 24.68 pg and the “MEAN CORPUSCULAR HEMOGLOBIN CONCENTRATION” value [3] was 36.08 G/DL. For the same compound, the “MEAN CORPUSCULAR VOLUME” value [3] was 68.37 fL, the MONOCYTE [3] was 3.67% and the NEUTROPHIL [3] was 10.67%. For the same compound, the “NUCLEATED RED BLOOD CELLS” value [3] was 0 /100WBC, the “PLATELET COUNT” value [3] was 1129.33 x10E3/uL and the “ALANINE AMINOTRANSFERASE” value [3] was 63.33 u/L. The ALBUMIN [3] was 4.7 G/DL, the “ALKALINE PHOSPHATASE” value [3] was 419.67 u/L and the “ASPARTATE AMINOTRANSFERASE” value [3] was 128.33 u/L. For the same compound, the “BLOOD UREA NITROGEN” value [3] was 10.5 mg/dL, the “CARBON DIOXIDE” value [3] was 14.83 mmol/L and the CHLORIDE [3] was 104.17 MEQ/L. The CHOLESTEROL [3] was 78.67 mg/dL, the “CREATINE PHOSPHOKINASE” value [3] was 651.17 u/L and the CREATININE [3] was 0.27 mg/dL. The GLUCOSE [3] was 216.83 mg/dL, the “LACTATE DEHYDROGENASE” value [3] was 402.17 u/L and the LIPASE [3] was 11.67 u/L. The PHOSPHORUS [3] was 17.25 mg/dL, the POTASSIUM [3] was 7.07 MEQ/L and the SODIUM [3] was 146.68 MEQ/L. The “TOTAL BILIRUBIN” value [3] was 0.23 mg/dL, the “TOTAL PROTEIN” value [3] was 6.17 G/DL and the “URIC ACID” value [3] was 3.28 mg/dL.
